Measurements reported in patent publication US20110065782A1, “METHODS OF IDENTIFYING COMPOUNDS THAT INHIBIT THE ACTIVATION OF A BIOMOLECULE AND METHODS OF TREATMENT USING THE COMPOUNDS” (priority 2009, published 2011).

Experiments:
Edema Factor (EF) = Edema Factor (EF) (Bacillus anthracis, UniProt P40136); assay: biochemical; assay type: biochemical
calmodulin (CaM) = biological target: T1, calmodulin (CaM) (Homo sapiens, UniProt P0DP23); assay: CaM binding of peptide P233-254 probed by steady-state tryptophan anisotropy fluorescence; conditions: 10 μM TUAdiCl; for fluorescence anisotropy (r) of P233-254 peptide: peptide 2 μM, calcium present
T1 construct: made in house

preformed EF-CaM complex = preformed EF-CaM complex (Bacillus anthracis, UniProt P40136); assay type: biochemical
preformed EF-CaM complex, sequence (P40136 whole entry, looked up, one chain of several): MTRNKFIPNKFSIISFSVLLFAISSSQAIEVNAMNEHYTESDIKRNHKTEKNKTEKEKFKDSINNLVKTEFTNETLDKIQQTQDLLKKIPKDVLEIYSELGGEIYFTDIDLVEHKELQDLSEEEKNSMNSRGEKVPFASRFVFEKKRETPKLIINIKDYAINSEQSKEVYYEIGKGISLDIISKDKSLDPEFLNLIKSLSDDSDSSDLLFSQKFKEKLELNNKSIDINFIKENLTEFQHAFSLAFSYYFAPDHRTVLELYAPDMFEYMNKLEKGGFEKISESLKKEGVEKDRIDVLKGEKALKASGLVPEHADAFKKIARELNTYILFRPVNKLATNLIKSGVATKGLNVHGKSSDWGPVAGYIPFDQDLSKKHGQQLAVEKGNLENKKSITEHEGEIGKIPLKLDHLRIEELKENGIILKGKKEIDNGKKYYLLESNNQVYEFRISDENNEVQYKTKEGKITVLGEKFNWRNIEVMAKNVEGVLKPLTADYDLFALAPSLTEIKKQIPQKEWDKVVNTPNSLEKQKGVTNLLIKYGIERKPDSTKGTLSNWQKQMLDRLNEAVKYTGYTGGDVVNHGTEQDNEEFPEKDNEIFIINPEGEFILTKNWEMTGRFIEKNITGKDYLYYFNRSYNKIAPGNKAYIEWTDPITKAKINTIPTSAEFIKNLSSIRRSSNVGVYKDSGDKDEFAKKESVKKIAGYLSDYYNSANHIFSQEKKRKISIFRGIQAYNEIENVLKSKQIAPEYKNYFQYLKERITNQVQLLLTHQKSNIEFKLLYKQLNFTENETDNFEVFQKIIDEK

[1] = biological target: T2, adenylate cyclase toxin (CyaA) (Bordetella pertussis, UniProt P0DKX7); assay: Colorimetric adenylate cyclase enzymatic assay on CyaA; assay type: biochemical; conditions: concentration not given
T2 construct: made in house
T2 sequence (P0DKX7 whole entry, looked up): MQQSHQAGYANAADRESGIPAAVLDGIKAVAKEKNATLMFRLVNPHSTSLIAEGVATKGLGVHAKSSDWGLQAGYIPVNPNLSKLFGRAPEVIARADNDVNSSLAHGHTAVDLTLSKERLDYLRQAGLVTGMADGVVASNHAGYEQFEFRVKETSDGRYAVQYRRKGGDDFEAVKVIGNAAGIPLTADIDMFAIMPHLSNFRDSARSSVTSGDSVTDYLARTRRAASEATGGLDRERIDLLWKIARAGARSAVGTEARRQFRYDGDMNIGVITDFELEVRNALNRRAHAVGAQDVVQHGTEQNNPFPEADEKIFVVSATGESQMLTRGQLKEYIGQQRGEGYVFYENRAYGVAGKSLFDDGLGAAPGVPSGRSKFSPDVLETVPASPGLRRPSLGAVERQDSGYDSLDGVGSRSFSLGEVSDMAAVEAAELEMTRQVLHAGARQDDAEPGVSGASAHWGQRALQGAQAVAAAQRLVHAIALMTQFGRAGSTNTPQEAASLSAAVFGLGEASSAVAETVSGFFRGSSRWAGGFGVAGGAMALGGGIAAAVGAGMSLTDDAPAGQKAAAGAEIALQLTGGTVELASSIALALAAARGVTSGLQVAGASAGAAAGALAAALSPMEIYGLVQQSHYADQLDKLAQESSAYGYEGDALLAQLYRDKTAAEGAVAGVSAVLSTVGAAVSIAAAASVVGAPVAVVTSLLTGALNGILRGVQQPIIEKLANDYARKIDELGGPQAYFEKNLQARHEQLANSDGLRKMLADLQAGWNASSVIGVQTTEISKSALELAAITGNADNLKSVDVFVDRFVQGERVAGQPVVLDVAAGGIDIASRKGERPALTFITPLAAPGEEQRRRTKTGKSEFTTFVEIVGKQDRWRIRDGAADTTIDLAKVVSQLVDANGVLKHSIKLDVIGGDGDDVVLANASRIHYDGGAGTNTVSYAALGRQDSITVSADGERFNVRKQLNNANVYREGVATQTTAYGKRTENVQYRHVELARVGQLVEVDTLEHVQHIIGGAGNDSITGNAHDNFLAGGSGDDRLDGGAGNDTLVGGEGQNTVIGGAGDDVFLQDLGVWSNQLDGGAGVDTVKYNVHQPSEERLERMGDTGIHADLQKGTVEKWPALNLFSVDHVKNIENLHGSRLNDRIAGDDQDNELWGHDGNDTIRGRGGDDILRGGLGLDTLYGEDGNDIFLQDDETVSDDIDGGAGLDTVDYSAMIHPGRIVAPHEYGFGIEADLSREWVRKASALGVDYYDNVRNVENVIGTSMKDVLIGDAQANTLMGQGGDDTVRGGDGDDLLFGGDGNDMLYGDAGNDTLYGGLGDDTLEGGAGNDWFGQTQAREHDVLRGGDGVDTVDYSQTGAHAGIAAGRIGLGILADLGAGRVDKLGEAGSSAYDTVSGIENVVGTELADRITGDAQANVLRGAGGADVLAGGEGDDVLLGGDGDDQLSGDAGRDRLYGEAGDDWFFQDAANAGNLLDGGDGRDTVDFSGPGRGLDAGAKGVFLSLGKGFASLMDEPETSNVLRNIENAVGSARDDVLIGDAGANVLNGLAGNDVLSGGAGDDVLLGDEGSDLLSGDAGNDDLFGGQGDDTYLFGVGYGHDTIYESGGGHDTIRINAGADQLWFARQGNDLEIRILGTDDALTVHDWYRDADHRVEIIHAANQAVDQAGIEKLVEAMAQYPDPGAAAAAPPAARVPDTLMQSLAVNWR

Edema Factor (EF), sequence (P40136 34-800 limits assumed): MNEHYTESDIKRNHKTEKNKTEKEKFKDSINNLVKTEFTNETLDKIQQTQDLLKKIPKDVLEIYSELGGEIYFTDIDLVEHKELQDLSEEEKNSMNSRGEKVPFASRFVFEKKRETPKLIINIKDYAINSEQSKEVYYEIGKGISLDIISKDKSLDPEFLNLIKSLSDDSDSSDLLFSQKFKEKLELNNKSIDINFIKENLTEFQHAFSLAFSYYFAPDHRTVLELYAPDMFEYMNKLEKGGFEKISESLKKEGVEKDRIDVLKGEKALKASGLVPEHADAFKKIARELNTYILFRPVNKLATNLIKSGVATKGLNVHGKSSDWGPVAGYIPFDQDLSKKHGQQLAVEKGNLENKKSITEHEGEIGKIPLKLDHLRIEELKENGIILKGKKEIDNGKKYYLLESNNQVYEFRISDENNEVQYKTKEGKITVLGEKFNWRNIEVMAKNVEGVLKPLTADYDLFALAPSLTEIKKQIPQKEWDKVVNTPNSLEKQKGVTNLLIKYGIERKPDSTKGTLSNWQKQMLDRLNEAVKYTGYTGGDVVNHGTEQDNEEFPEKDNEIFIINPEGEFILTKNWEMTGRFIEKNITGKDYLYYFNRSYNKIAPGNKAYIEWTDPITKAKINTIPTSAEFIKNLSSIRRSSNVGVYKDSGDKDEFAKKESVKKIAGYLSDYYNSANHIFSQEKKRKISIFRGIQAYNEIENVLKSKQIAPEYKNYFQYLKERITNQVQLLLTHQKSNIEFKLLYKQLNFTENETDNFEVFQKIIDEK

| Structure (SMILES) | IC50 (Edema Factor (EF)) [nM] | concentration at which EF activity is inhibited (Edema Factor (EF)) | inhibition at 100 µM (Edema Factor (EF)) [%] | inhibition at 10 µM (Edema Factor (EF); read-out: inhibition of EF enzymatic activity) [%] | effect on the ability of CaM to associate with CaM-binding peptide from CyaA (calmodulin (CaM)) | fluorescence anisotropy (r) of P233-254 peptide (calmodulin (CaM); with equimolar CaM) | fluorescence anisotropy (r) of P233-254 peptide (calmodulin (CaM); without CaM) | inhibition of enzymatic activity of the preformed EF-CaM complex (preformed EF-CaM complex) | inhibition of CyaA activity [1] |
| --- | --- | --- | --- | --- | --- | --- | --- | --- | --- |
| O=C(Nc1ccc(Cl)c(Cl)c1)Nc1cc(-c2ccccc2)sc1C(=O)O [TUAdiCl] | 2000 to 3000 | less than 10 μM | 98 ± 6 | > 80 | no effect | 0.095 | 0.027 | significantly inhibit |  |
| O=C(Nc1ccc(Cl)c(Cl)c1)Nc1cc(-c2ccccc2)sc1C(=O)O [drawing 10] |  |  |  |  |  |  |  |  | inhibit CyaA activity |
